Test results from patent EP0047977A2, “Cephalosporin derivatives, process for their preparation, pharmaceutical compositions containing them and their use” (CIBA-GEIGY AG, priority 1980, dated 1982).
In brackets after ≈: the same amount, converted by molar mass.

Columns and labels:
Escherichia coli 205 = assay: Antibiotic activity in vitro, agar dilution method in DST agar (MIC); format: cell-based
[1] = test system: Pseudomonas aeruginosa ATCC 12055; assay: as above; format: cell-based; conditions: ATCC12055
[2] = test system: Streptococcus pyogenes Aronson; assay: as above; format: cell-based
[3] = test system: Escherichia coli 205 K 1075; assay: Chemotherapeutic efficacy in vivo against systemic infection in the mouse (ED50); conditions: 205K1075, sc; s.c.; systemic infection with Escherichia coli 205 K 1075 in female SPF, MF2 mice
Description: (§1) B. Die chemotherapeutische Wirksamkeit in vivo gegen systemische Infektionen in weiblichen SPF, MF2 Mäusen wurde nach der Methode von Zak, 0., et al., 1979, Drugs Exptl. Clin. Res. 5, 45-59, ermittelt. Die gefundenen ED50-Werte in Milligramm Substanz pro Kilogramm Maus (mg/kg) gegen eine Anzahl von Mikroorganismen werden für die subcutan (s.c.) applizierten Testverbindungen in der Tabelle 2 angegeben.

[4] = test system: Pseudomonas aeruginosa ATCC 12055; assay: as above; conditions: ATCC12055, sc; s.c.; systemic infection with Pseudomonas aeruginosa ATCC 12055 in female SPF, MF2 mice
Description: as §1

[5] = test system: Clostridium perfringens (anaerob); assay: microbe, parasite or virus in culture; format: cell-based

| SMILES | MIC (Escherichia coli 205) [µg/mL] | MIC [1] [µg/mL] | MIC [2] [µg/mL] | ED50 [3] [mg/kg] | ED50 [4] [mg/kg] | MIC [5] [µg/mL] |
| --- | --- | --- | --- | --- | --- | --- |
| CO/N=C(\C(=O)N[C@@H]1C(=O)N2C(C(=O)[O-])=C(C[n+]3ccc(C(=O)O)cc3)CS[C@H]12)c1nsc(N)n1 [Verbindung 1, 7ß-[2-(5-Amino-1,2,4-thiadiazol-3-yl)-2-Z-methoxyiminoacetamido]-3-(4-carboxypyridiniomethyl)-3-cephem-4-carboxylat] | 0.05 (≈ 0.0962 µM) | 1 (≈ 1.92 µM) | 0.1 (≈ 0.192 µM) | 0.9 | 6 | – |
| CC(C)(O/N=C(\C(=O)N[C@@H]1C(=O)N2C(C(=O)[O-])=C(C[n+]3cccc(CC(=O)O)c3)CS[C@H]12)c1nsc(N)n1)C(=O)O [Verbindung 2, 7β-[2-(5-Amino-1,2,4-thiadiazol-3-yl)-2-Z-2-carboxyprop-2-yloxy-iminoacetamido]-3-(3-carboxymethylpyridiniomethyl)-3-cephem-4-carboxylat] | 1 (≈ 1.65 µM) | 0.5 (≈ 0.826 µM) | 1 (≈ 1.65 µM) | 2 | ≥ 30 | 0.1 (≈ 0.165 µM) |
| Cn1ccc[n+]1CC1=C(C(=O)[O-])N2C(=O)[C@@H](NC(=O)/C(=N\OC(C)(C)C(=O)O)c3nsc(N)n3)[C@H]2SC1 [Verbindung 3, 7ß-[2-(5-Amino-1,2,4-thiadiazol-3-yl)-2-Z-2-carboxyprop-2-yloxy-iminoacetamido]-3-(2-methyl-1-pyrazoliomethyl)-3-cephem-4-carboxylat] | 0.5 (≈ 0.908 µM) | 2 (≈ 3.63 µM) | 0.5 (≈ 0.908 µM) | 5 | 10 | 0.05 (≈ 0.0908 µM) |
| CO/N=C(\C(=O)N[C@@H]1C(=O)N2C(C(=O)[O-])=C(C[n+]3cccn3C)CS[C@H]12)c1nsc(N)n1 [Verbindung 4, 7β-[2-(5-Amino-1,2,4-thiadiazol-3-yl)-2-Z-methoxyiminoacetamido]-3-(2-methyl-1-pyrazoliomethyl)-3-cephem-4-carboxylat] | 0.1 (≈ 0.209 µM) | 0.5 (≈ 1.04 µM) | 0.1 (≈ 0.209 µM) | 2.4 | 30 | – |
| CO/N=C(\C(=O)N[C@@H]1C(=O)N2C(C(=O)[O-])=C(C[n+]3cccc(Br)c3)CS[C@H]12)c1nsc(N)n1 [Verbindung 5, 7β-[2-(5-Amino-1,2,4-thiadiazol-3-yl)-2-Z-methoxyiminoacetamido]-3--(3-brompyridiniomethyl)-3-cephem-4-carboxylat] | 0.1 (≈ 0.18 µM) | 0.5 (≈ 0.902 µM) | 0.05 (≈ 0.0902 µM) | 0.9 | 10 to 30 | 0.01 (≈ 0.018 µM) |
| CO/N=C(\C(=O)N[C@@H]1C(=O)N2C(C(=O)[O-])=C(C[n+]3ccc(CO)cc3)CS[C@H]12)c1nsc(N)n1 [Verbindung 6, 7ß-[2-(5-Amino-1,2,4-thiadiazol-3-yl)-2-Z-methoxyiminoacetamido]-3-(4-hydroxymethylpyridiniomethyl)-3-cephem-4-carboxylat] | 0.05 (≈ 0.0989 µM) | 0.1 (≈ 0.198 µM) | – | – | 3 to 10 | 0.01 (≈ 0.0198 µM) |
